Like-named read-outs stand apart in the source and are kept apart here.
What was measured:
transglutaminase (TGase) = experiment: Measurement of TG (TGase inhibitory activity, monodansyl cadaverine / N,N-dimethylcasein fluorescence, FDSS 3000); type: biochemical
How it was run: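 Compound (1 μL of 10 mM stock) added to 0.1 mL reaction: 100 mM HEPES-NaOH pH 7.5, 1 mM CaCl2, 20 μM monodansyl cadaverine, 0.05 mg/mL N,N-dimethylcasein, 5 μg/mL TGase. Rate of fluorescence change at 340 nm measured; DMSO control set to 100; TG50 is the concentration halving activity.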

[1] = tested on: Truncated N-terminal huntington 150 Q-EGFP-Neuron 2a cells; experiment: Measurement of x-Fold (polyglutamine aggregation inhibitory activity); type: cell-based
Method: In the present invention, the polyglutamine aggregation inhibitory activity (x-Fold) can be measured, for example, by the method described in the Example.
The number of the aggregated cells, and the total number of cells were counted by Array Scan V T1 (manufactured by Cellomics, Pittuburg, USA), and the ratio of the aggregated cells to the total number of cells was determined (x-Fold). […]

[2] = tested on: SOC (store operated calcium channel); experiment: Measurement of SOC IC50 (thapsigargin store depletion, calcium re-addition, CHO cells); type: cell-based; conditions: read-out: SOC IC50
Method: The SOC (store operated calcium channel)-suppressive action can be measured by the method described in the Example and using, for example, FDSS 3000.
CHO cell culture medium was replaced with a BSS solution which is an extracellular fluidfree of calcium, the compound of the present invention was added 1 min later, and 1 μM thapsigargin was allowed to act thereon 2 min later to deplete intracellular calcium store. […]

[3] = TGase activity with compound (10 mM, 1 μL in 0.1 ml enzyme reaction solution), DMSO control taken as 100
[4] = TGase inhibitory activity measurement, unit not given
[5] = polyglutamine aggregation, Truncated N-terminal huntington 150 Q-EGFP-Neuron 2a cells
[6] = ratio of aggregated cells to total number of cells, compound 20 μM, 20 hr, almost 1 without compound, smaller = stronger inhibition
[7] = CHO cells, 1 μM thapsigargin, 2 mM calcium chloride
[8] = Cricetulus griseus, CHO, CHO cells, 1 μM thapsigargin, 2 mM calcium chloride
[9] = Cricetulus griseus, CHO, CHO cells, thapsigargin store depletion
[10] = polyglutamine aggregation inhibitory activity, Table 1
[11] = Cricetulus griseus, CHO, Table 1
[12] = TGase inhibitory activity value, Table 1

| Compound | TGase activity remaining (% of DMSO control = 100) (transglutaminase (TGase); [3]) | x-Fold [1, 6] | x-Fold [1, 10] | IC50 [2, 11] [nM] | TGase activity remaining (% of DMSO control = 100) (transglutaminase (TGase); [12]) | further results |
| --- | --- | --- | --- | --- | --- | --- |
| NCCSB(c1ccccc1)c1ccc(Oc2ccc(B(SCCN)c3ccccc3)cc2)cc1 [Example 433, bis(4,4′-(phenyl-aminoethylthioboryl)phenyl)ether] | −5 | 0.71 |  |  |  | TGase activity remaining (% of DMSO control = 100) (transglutaminase (TGase); [4]): −5; x-Fold [1, 5]: 0.71; IC50 [2, 7]: 500 nM |
| CN(C)CCOB(c1ccccc1)c1cccc(COCc2cccc(B(OCCN(C)C)c3ccccc3)c2)c1 [Example 403, bis(3,3′-(phenyl-N,N-dimethylaminoethoxyboryl)benzyl)ether] |  | 1.14 |  |  |  | x-Fold ([1]; polyglutamine aggregation, Truncated N-terminal huntington 150 Q-EGFP-Neuron 2a cells, listed as 2022): 1.14; IC50 [2, 8]: 2000 nM; IC50 [2, 9]: 2000 nM |
| OB(c1ccccc1)c1ccc(COc2ccc(B(O)c3ccccc3)cc2)cc1 [Example 370, (4-phenylhydroxyborylphenyl)(4′-phenylhydroxyborylbenzyl)ether] |  | 0.76 | 0.76 | 2000 |  | IC50 [2, 8]: 2000 nM |
| NCCOB(c1ccc(COc2ccc(B(OCCN)c3ccc(C(F)(F)F)cc3)cc2)cc1)c1ccc(C(F)(F)F)cc1 [Example 373, (4-trifluoromethylphenylaminoethoxyborylphenyl)(4′-trifluoromethylphenylaminoethoxyborylbenzyl)ether] |  | 0.84 | 0.84 | 2000 |  | IC50 [2, 8]: 2000 nM |
| Cc1ccc(B(OCc2ccccn2)c2ccc(C)c(Cl)c2)cc1Cl [Example 215] |  | 1.03 | 1.03 | 2000 |  | IC50 [2, 8]: 2000 nM |
| OB(c1ccc(COc2ccc(B(O)c3ccc(C(F)(F)F)cc3)cc2)cc1)c1ccc(C(F)(F)F)cc1 [Example 372, (4-trifluoromethylphenylhydroxyborylphenyl)(4′-trifluoromethylphenylhydroxyborylbenzyl)ether] |  | 0.86 | 0.86 | 1000 |  | IC50 [2, 8]: 1000 nM |
| NC(CCC(=O)O)C(=O)OB(c1ccccc1)c1ccc(Oc2ccc(B(OC(=O)C(N)CCC(=O)O)c3ccc(CO)cc3)cc2)cc1 (stereo not shown) [compound 1036] |  |  |  | 300 |  |  |
| bis(3-chloro-4-methylphenyl hydroxyborylbenzyl)ether [Example 125] | 113 |  |  |  | 113 | IC50 [2, 7]: 10000 nM |
| OB(c1ccccc1)c1ccc(COCc2cccc(B(O)c3ccccc3)c2)cc1 [Example 329, (3-(phenylhydroxyboryl)benzyl)(4-(phenylhydroxyboryl)benzyl)ether] | 81 |  |  | 200 | 81 | IC50 [2, 8]: 200 nM |
| OB(c1ccccc1)c1cccc(B(O)c2ccccc2)c1 [compound 554] |  |  |  | > 20000 |  |  |
| CC1[NH2+][B-](c2ccccc2)(c2ccccc2)OC1=O (stereo not shown) [Example 258, diphenyl(alaninate-O,N)borane] | 110 |  |  | 5000 | 110 | IC50 [2, 8]: 5000 nM |
| Cc1ccc(B(OC(=O)C(N)CC(N)=O)c2ccc(C)c(Cl)c2)cc1Cl (stereo not shown) [compound 4103] |  |  |  | 300 |  |  |
| NCCSB(c1ccccc1)c1cccc(COCc2cccc(B(SCCN)c3ccccc3)c2)c1 [Example 405, bis(3,3′-(phenyl-aminoethylthioboryl)benzyl)ether] |  | 0.86 |  |  |  | x-Fold [1, 5]: 0.86; IC50 [2, 8]: 500 nM; IC50 [2, 9]: 500 nM |
| NCCOB(c1ccccc1)c1ccc(-c2ccc(B(OCCN)c3ccccc3)s2)s1 [Example 356, 5,5′-(phenylaminoethoxyboryl)-2,2′-dithiophene] | 51 | 1.06 | 1.06 |  | 51 |  |
| OB(c1ccc(COCc2ccc(B(O)c3ccc(F)c(F)c3)cc2)cc1)c1ccc(F)c(F)c1 [Example 411, bis(4,4′-(3,4-difluorophenyl-hydroxyboryl)benzyl)ether] | 138 | 0.90 |  |  |  | TGase activity remaining (% of DMSO control = 100) (transglutaminase (TGase); [4]): 138; x-Fold [1, 5]: 0.90 |
| OB(c1ccccc1)c1ccccc1CCOCc1ccccc1B(O)c1ccccc1 [Example 368, (2-(phenylhydroxyboryl)phenethyl)((2-phenylhydroxyboryl)benzyl)ether] | 52 | 1.03 | 1.03 |  | 52 |  |
| OB(c1ccccc1)c1cccc(-c2cccc(B(O)c3ccccc3)n2)n1 [Example 381, 6,6′-(phenylhydroxyboryl)-2,2′-dipyridyl] | 55 | 0.80 | 0.80 |  | 55 |  |
| OB(c1ccsc1)c1ccc2sc3ccc(B(O)c4ccsc4)cc3c2c1 [Example 406, 2,8-di(3-thiophenylhydroxyboryl)dibenzothiophene] | 61 | 0.85 |  |  |  | TGase activity remaining (% of DMSO control = 100) (transglutaminase (TGase); [4]): 61; x-Fold [1, 5]: 0.85 |
| NCCC(N)C(=O)OB(c1ccccc1)c1ccccc1 (stereo not shown) [Example 178] | 142 | 0.89 |  |  |  | TGase activity remaining (% of DMSO control = 100) (transglutaminase (TGase); TGase inhibitory activity value, Table 1, listed as 2039): 142; x-Fold ([1]; polyglutamine aggregation inhibitory activity, Table 1, listed as 2039): 0.89 |
| FC(F)(F)c1ccc(C(OB(c2ccccc2)c2ccc(COCc3ccc(B(OC(c4ccc(C(F)(F)F)cc4)c4ccccn4)c4ccccc4)cc3)cc2)c2ccccn2)cc1 (stereo not shown) [Example 149, 4,4′-di((phenyl 1-(pyridin-2-yl)-1-trifluoromethylphenylmethoxyboryl)benzyl)ether] | 96 | 0.99 |  |  |  |  |
| N#Cc1ccc(B(OCCNCc2ccccc2)c2ccc(C#N)cc2)cc1 [Example 105, benzylaminoethyl bis(4-cyanophenyl)borinate] | 92 | 1.05 | 1.05 |  | 92 |  |
| diphenyl(tryptophanate-O,N)borane [Example 260] | 106 | 0.89 | 0.89 |  | 106 |  |
| OB(c1ccc(COCCOc2ccc(B(O)c3cccs3)cc2)cc1)c1cccs1 [Example 296, (4-(2-thiophenehydroxyboryl)phenoxyethyl)(4′-(2-thiophenehydroxyboryl)benzyl)ether] | 97 | 0.74 | 0.74 |  | 97 |  |
| CN(C)CCOB(c1cc(F)cc(F)c1)c1cc(F)cc(F)c1 [Example 92, dimethylaminoethyl bis(3,5-difluorophenyl)borinate] | 106 | 1.00 | 1.00 |  | 106 |  |
| Cc1ccc(Cl)cc1B(O)c1cc(Cl)ccc1C [Example 171, di(3-chloro-6-methylphenyl)borinic acid] | 98 | 0.71 |  |  |  |  |
| c1ccc(B(OCC2CCCN2)c2ccc3sc4ccc(B(OCC5CCCN5)c5ccccc5)cc4c3c2)cc1 (stereo not shown) [Example 483, 2,8-di(phenyl 2-pyrrolidinomethoxyboryl)dibenzothiophene] | 107 | 0.73 |  |  |  | TGase activity remaining (% of DMSO control = 100) (transglutaminase (TGase); [4]): 107; x-Fold [1, 5]: 0.73 |
| Cc1ccc(B(OC(=O)C(N)CC(N)=O)c2ccc(COCc3ccc(B(OC(=O)C(N)CC(N)=O)c4ccc(C)cc4)cc3)cc2)cc1 (stereo not shown) [Example 449, bis(4,4′-(tolylasparagineboryl)benzyl)ether] | 92 | 0.89 |  |  |  | TGase activity remaining (% of DMSO control = 100) (transglutaminase (TGase); [4]): 92; x-Fold [1, 5]: 0.89 |
| CCCCB(OCCN)c1ccccc1 [Example 112, aminoethyl normal-butyl phenylborinate] | 123 | 0.99 | 0.99 |  | 123 |  |
| Cc1cc(B(O)c2ccc(COCc3ccc(B(O)c4ccc(Cl)c(C)c4)cc3)cc2)ccc1Cl [Example 139, bis(4-chloro-3-methylphenylhydroxyboryl 4-benzyl)ether] | 122 | 0.88 |  |  |  | TGase activity remaining (% of DMSO control = 100) (transglutaminase (TGase); TGase inhibitory activity value, Table 1, listed as 611): 122; x-Fold ([1]; polyglutamine aggregation inhibitory activity, Table 1, listed as 611): 0.88 |

From patent publication US8853424B2 (Japan Science and Technology Agency, priority 2008, dated 2014)
